Assay results taken from PubChem BioAssay (NCI).
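Tested at 5 concentrations; 48 h exposure; 96-well plates; endpoints linearly interpolated, else capped at highest concentration. TGI is the concentration that stops growth completely.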

Experiments:
Assay in all cases: NCI-60 cell line screen, 48 h
[1] = tested on: DMS 273 small cell lung
[2] = tested on: CCRF-CEM leukemia
[3] = tested on: K-562 leukemia
[4] = tested on: HCC-2998 colon
[5] = tested on: UACC-62 melanoma
[6] = tested on: NCI-H226 lung
[7] = tested on: UACC-257 melanoma
[8] = tested on: MOLT-4 leukemia
[9] = tested on: ACHN renal
[10] = tested on: NCI-H522 lung
[11] = tested on: CAKI-1 renal
[12] = tested on: HCT-116 colon
[13] = tested on: SW-620 colon
[14] = tested on: A498 renal
[15] = tested on: UO-31 renal
[16] = tested on: OVCAR-8 ovarian
[17] = tested on: KM20L2 colon
[18] = tested on: OVCAR-4 ovarian
[19] = tested on: HCT-15 colon
[20] = tested on: HT29 colon
[21] = tested on: OVCAR-3 ovarian
[22] = tested on: SF-268 CNS
[23] = tested on: HOP-62 NSCLC
[24] = tested on: RPMI-8226 leukemia
[25] = tested on: HOP-18 NSCLC
[26] = tested on: DMS 114 small cell lung
[27] = tested on: SF-295 CNS
[28] = tested on: SNB-75 CNS
[29] = tested on: COLO 205 colon
[30] = tested on: SNB-19 CNS
[31] = tested on: SK-MEL-28 melanoma
[32] = tested on: SK-MEL-5 melanoma
[33] = tested on: SN12C renal
[34] = tested on: IGROV1 ovarian
[35] = tested on: A549 NSCLC
[36] = tested on: SK-OV-3 ovarian
[37] = tested on: MALME-3M melanoma
[38] = tested on: LOX IMVI melanoma
[39] = tested on: RXF 393 renal
[40] = tested on: U251 CNS
[41] = tested on: NCI-H460 lung
[42] = tested on: HL-60(TB) leukemia
[43] = tested on: 786-0 renal
[44] = tested on: LXFL 529 NSCLC
[45] = tested on: KM12 colon
[46] = tested on: SK-MEL-2 melanoma
[47] = tested on: M19-MEL melanoma
[48] = tested on: SNB-78 CNS
[49] = tested on: EKVX NSCLC
[50] = tested on: M14 melanoma

Measured: TGI

CCOC(=O)NC(=O)c1cn(C(CC)COC(=O)NCCCCCCNC(=O)OCC(CC)n2cc(C(=O)NC(=O)OCC)c(=O)[nH]c2=O)c(=O)[nH]c1=O (stereo not given)
> 100 µM: all assays above
